Experimental data: patent publication US4518581A, “Imparting low- or anti-cariogenic property to orally-usable products” (Kabushiki Kaisha Hayashibara Seibutsu Kagaku Kenkyujo, priority 1981, dated 1985)

What was measured:
[1] = tested on: Streptococcus mutans 6715 strain; assay: Organic acid formation from saccharides by Streptococcus mutans cells, pH-measurement (Experiment 4); assay type: cell-based; details: 37° C., 30 minutes; for pH-Level of the reaction mixture (organic acid formation): cell suspension, Stephan's buffer (pH 7.0), saccharide solution; for organic acid formation from the saccharide: Streptococcus mutans 6715 cells
Experimental: Organic acid formation from some saccharides by Streptococcus mutans was tested: Streptococcus mutans 6715 strain was cultivaed similarly as in EXPERIMENT 1, and the cells, obtained by centrifuging the culture, were washed with 0.9 w/v % sodium chloride solution, followed by additional centrifugation. Two ml of a mixture solution, consisting of 0.2 ml of the cell suspension, prepared from about 100 ml of the culture, 1.5 ml of Stephan's buffer, and 0.3 ml aqueous solution of each saccharide as listed in TABLE II, was incubated at 37° C. for 30 minutes, followed by pH-measurement of the reaction mixture. The Stephan's buffer was prepared by the method as reported by R. M. Stephan et al., Journal of Dental Research, Vol.26, pp.15-41 (1947): One ml of Solution I, prepared by dissolving 17.89 g Na2 HPO4. 12H2 O, 7.92 g KOH and 6.81 g KH2 PO4 in water to give a final volume of 100 ml, was placed in a 100-ml volumetric flask, and mixed with about 90 ml of water. To the flask was added 1 ml of Solution II, prepared by dissolving 4.54 g KH2 PO4, 0.32 g MgSO4.7H2 O, 0.57 g CaSO4.2H2 O and 10 ml of 3.5% hydrochloric acid solution in water to give a final volume of 100 ml. This mixture was diluted with additional water to obtain 100 ml of Stephan's buffer (pH 7.0).
The results are given in TABLE II, wherein the organic acid formation from the saccharides can be estimated by the pH-values.

[2] = target: T1, water-insoluble glucan producing enzyme (Streptococcus downei, UniProt P27470); assay: Effect of saccharides on formation of water-insoluble glucan from sucrose (Experiment 3); assay type: biochemical, Streptococcus mutans 6715 strain; details: 1 ml 4 w/v % sucrose plus 1 ml 4 w/v % saccharide, 0.02 units enzyme, 37° C., 16 hours; for A: amounts of water-insoluble glucan formed: sucrose control 300
T1 construct: endogenous in cells; host or cells: Streptococcus mutans 6715 strain (today S. sobrinus), culture supernatant, ammonium sulfate precipitate, dialyzed
T1 sequence (P27470 39-1592): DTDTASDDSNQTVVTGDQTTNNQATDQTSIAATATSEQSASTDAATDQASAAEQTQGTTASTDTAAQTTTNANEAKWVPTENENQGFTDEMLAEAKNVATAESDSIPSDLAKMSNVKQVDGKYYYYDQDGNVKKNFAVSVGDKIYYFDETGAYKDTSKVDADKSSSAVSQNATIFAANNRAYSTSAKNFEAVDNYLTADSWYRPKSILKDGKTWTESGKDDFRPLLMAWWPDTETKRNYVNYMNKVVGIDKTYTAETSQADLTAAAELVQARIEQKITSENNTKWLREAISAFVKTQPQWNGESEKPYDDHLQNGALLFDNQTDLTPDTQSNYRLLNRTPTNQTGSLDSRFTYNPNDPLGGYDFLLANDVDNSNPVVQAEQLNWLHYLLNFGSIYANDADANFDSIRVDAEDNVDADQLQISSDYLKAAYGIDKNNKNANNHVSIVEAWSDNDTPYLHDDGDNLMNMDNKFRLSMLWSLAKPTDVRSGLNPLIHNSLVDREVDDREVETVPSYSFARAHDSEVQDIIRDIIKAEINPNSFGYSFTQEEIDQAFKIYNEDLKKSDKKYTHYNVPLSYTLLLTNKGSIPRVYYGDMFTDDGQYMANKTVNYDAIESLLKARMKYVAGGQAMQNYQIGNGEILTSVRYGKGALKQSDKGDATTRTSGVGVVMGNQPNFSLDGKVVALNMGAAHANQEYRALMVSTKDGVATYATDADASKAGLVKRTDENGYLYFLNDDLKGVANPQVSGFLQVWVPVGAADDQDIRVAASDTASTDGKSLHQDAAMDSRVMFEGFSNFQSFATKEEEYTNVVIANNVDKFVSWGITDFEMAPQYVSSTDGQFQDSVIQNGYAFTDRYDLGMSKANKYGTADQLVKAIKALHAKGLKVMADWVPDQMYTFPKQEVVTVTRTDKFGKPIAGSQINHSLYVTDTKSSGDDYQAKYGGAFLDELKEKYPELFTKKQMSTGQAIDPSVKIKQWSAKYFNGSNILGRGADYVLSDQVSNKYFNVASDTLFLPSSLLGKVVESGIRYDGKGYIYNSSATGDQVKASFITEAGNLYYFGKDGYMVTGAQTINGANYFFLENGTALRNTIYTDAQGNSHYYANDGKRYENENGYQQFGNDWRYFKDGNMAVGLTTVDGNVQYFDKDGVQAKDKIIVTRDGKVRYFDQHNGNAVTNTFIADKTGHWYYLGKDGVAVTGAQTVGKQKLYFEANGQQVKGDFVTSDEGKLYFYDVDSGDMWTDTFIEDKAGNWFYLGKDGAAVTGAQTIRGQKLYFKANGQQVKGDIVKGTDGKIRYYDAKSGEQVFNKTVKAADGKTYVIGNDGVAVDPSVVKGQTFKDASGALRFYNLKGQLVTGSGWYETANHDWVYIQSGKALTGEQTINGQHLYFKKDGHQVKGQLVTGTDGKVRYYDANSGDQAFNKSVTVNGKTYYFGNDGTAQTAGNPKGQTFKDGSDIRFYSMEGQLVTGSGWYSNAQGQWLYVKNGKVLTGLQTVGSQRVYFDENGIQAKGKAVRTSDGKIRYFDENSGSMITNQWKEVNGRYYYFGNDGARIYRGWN
Experimental: After completion of the cultivation, the culture was separated into cell precipitant and supernatant. Thereafter, to the supernatant was added with ammonium sulfate to give 60% saturation, and the resultant precipitant was dialyzed against 0.1M phosphate buffer (pH 7.2) to obtain an aqueous solution containing the enzyme.
The titers of the enzyme were assayed as follows: A mixture solution, consisting of 1 ml of 0.2M aqueous sucrose solution, 1 ml of water, 1 ml of 0.1M phosphate buffer containing 0.05 w/v % NaN3, and 0.5 ml of the enzyme solution (below 0.05 units), is incubated at 37° C. for 9 hours, followed by centrifugation of the reaction mixture. The resultant precipitant is mixed with 4 ml of 0.5N sodium hydroxide solution, and then incubated at this temperature for an additional one hour to dissolve the precipitant. The amount of water-insoluble glucan formed during the enzymatic reaction is then measured. One unit of the enzyme is defined as the amount of enzyme that transfers 1 μmole glucose from sucrose to the water-insoluble glucan in one minute.
Effects of some saccharides on the formation of water-insoluble glucan were tested: Water-insoluble glucan formation and inhibition thereof were determined according to the enzyme assay method as described in EXPERIMENT 1, except that the mixture solution contained sucrose, or sucrose and each saccharide as listed in TABLE I. The experiment was carried out as follows: A mixture solution, consisting of 1 ml of 4 w/v % aqueous sucrose solution, 1 ml of 4 w/v % aqueous solution of each saccharide as listed in TABLE I, 1.5 ml of 0.1M phosphate buffer containing 0.05 w/v % NaN3, and 0.5 ml of the enzyme solution (0.02 units), was incubated at 37° C. for 16 hours, and the water-insoluble glucan formation in the reaction mixture was determined according to the enzyme assy method.
In a control experiment, 1 ml of the above described saccharide solution was replaced with the same amount of water.
The inhibition degree was calculated with following equation:
Inhibition degree (%)=100-A/B×100
where A and B are respective amounts of the water-insoluble glucan formed (μg/ml) when the mixture solution contained sucrose or sucrose and each of the saccharides.

| Compound | pH-Level of the reaction mixture (organic acid formation) [1] | B: inhibition degree on water-insoluble glucan formation [2] | A: amounts of water-insoluble glucan formed [2] | organic acid formation from the saccharide [1] |
| --- | --- | --- | --- | --- |
| OC[C@H]1OC(O)[C@@H](O)[C@@H](O)[C@@H]1O (stereo partly drawn) [D-Mannose] | 5.5 | – | – | – |
| OC[C@H]1O[C@H](O[C@H]2[C@H](O)[C@@H](O)[C@@H](O[C@H]3[C@H](O)[C@@H](O)[C@@H](O[C@H]4[C@H](O)[C@@H](O)[C@@H](O[C@H]5[C@H](O)[C@@H](O)C(O)O[C@@H]5CO)O[C@@H]4CO)O[C@@H]3CO)O[C@@H]2CO)[C@H](O)[C@@H](O)[C@@H]1O (stereo partly drawn) [Maltopentaose] | 5.6 | 12% | 264 µg/mL | – |
| OC[C@H]1O[C@@](CO)(O[C@H]2O[C@H](CO)[C@@H](O)[C@H](O)[C@H]2O)[C@@H](O)[C@@H]1O [Sucrose] | 4.0 | – | – | – |
| OC[C@@H](O)[C@@H](O[C@H]1O[C@H](CO[C@H]2O[C@H](CO)[C@@H](O)[C@H](O)[C@H]2O)[C@@H](O)[C@H](O)[C@H]1O)[C@H](O)[C@@H](O)CO [Pannitol, 4-O-α-isomaltosyl glucitol] | 7.0 | – | 70 µg/mL | no organic acid formation |
| OC[C@@H](O)[C@@H](O[C@H]1O[C@H](CO)[C@@H](O[C@H]2O[C@H](CO)[C@@H](O[C@H]3O[C@H](CO)[C@@H](O)[C@H](O)[C@H]3O)[C@H](O)[C@H]2O)[C@H](O)[C@H]1O)[C@H](O)[C@@H](O)CO [Maltotetraitol] | – | 21% | 236 µg/mL | – |
| OC[C@H]1O[C@@H](O[C@H]2[C@H](O)[C@@H](O)C(O)O[C@@H]2CO)[C@H](O)[C@@H](O)[C@@H]1O (stereo partly drawn) [Cellobiose] | 7.0 | – | – | – |
| OC[C@@H](O)[C@@H](O[C@H]1O[C@H](CO)[C@@H](O[C@H]2O[C@H](CO)[C@@H](O)[C@H](O)[C@H]2O)[C@H](O)[C@H]1O)[C@H](O)[C@@H](O)CO [Maltotriitol] | 7.0 | 13% | 262 µg/mL | – |
| OC[C@H]1OC(O)[C@H](O)[C@@H](O)[C@H]1O (stereo partly drawn) [D-Galactose] | 7.0 | – | – | – |
| O=C(CO)[C@@H](O)[C@H](O[C@H]1O[C@H](CO)[C@@H](O)[C@H](O)[C@H]1O)[C@H](O)CO [Maltulose] | 7.0 | 40% | 180 µg/mL | – |
| OC[C@@H](O)[C@@H](O)[C@H](O)[C@H](O)CO [Mannitol] | 7.0 | 5% | 286 µg/mL | – |
| OC[C@H]1OC(O)[C@H](O)[C@@H](O)[C@@H]1O (stereo partly drawn) [D-Glucose] | 4.0 | – | – | – |
| OC[C@H](O)[C@@H](O)[C@H](O)[C@H](O)CO[C@H]1O[C@H](CO[C@H]2O[C@H](CO[C@H]3O[C@H](CO)[C@@H](O)[C@H](O)[C@H]3O)[C@@H](O)[C@H](O)[C@H]2O)[C@@H](O)[C@H](O)[C@H]1O [Isomaltotetraitol, 6^2 -O-α-isomaltosyl isomaltitol] | 7.0 | – | 45 µg/mL | no organic acid formation |
| OC[C@H](O)[C@@H](O)[C@H](O)[C@H](O)CO[C@H]1O[C@H](CO)[C@@H](O[C@H]2O[C@H](CO)[C@@H](O)[C@H](O)[C@H]2O)[C@H](O)[C@H]1O [Isopannitol] | 7.0 | 10% | 270 µg/mL | – |
| OC[C@H]1O[C@H](OC[C@H]2OC(O)[C@H](O)[C@@H](O)[C@@H]2O)[C@H](O)[C@@H](O)[C@H]1O (stereo partly drawn) [Melibiose] | 7.0 | – | 300 µg/mL | – |
| OC[C@H]1O[C@H](O[C@H]2[C@H](O)[C@@H](O)[C@@H](O[C@H]3[C@H](O)[C@@H](O)C(O)O[C@@H]3CO)O[C@@H]2CO)[C@H](O)[C@@H](O)[C@@H]1O (stereo partly drawn) [Maltotriose] | 5.0 | 29% | 213 µg/mL | – |
| OC[C@H]1O[C@@H](O[C@@H]2[C@@H](CO)OC(O)(CO)[C@H]2O)[C@H](O)[C@@H](O)[C@H]1O (mixture of isomers) [Lactulose] | 7.0 | 12% | 264 µg/mL | – |
| OC[C@@H](O)[C@@H](O[C@H]1O[C@H](CO)[C@@H](O[C@H]2O[C@H](CO[C@H]3O[C@H](CO)[C@@H](O)[C@H](O)[C@H]3O)[C@@H](O)[C@H](O)[C@H]2O)[C@H](O)[C@H]1O)[C@H](O)[C@@H](O)CO [Isomaltosyl maltitol, 4^2 -O-α--isomaltosyl maltitol] | 7.0 | – | 48 µg/mL | no organic acid formation |
| OC[C@@H](O)[C@H](O)[C@@H](O)CO [Xylitol] | 7.0 | 7% | 280 µg/mL | – |
| CC(=O)N[C@H]1C(O)O[C@H](CO)[C@@H](O)[C@@H]1O (stereo partly drawn) [N--Acetyl glucosamine] | 7.0 | 5% | 285 µg/mL | – |
| OC[C@H]1O[C@H](O[C@H]2O[C@H](CO)[C@@H](O)[C@H](O)[C@H]2O)[C@H](O)[C@@H](O)[C@@H]1O [Trehalose] | 7.0 | 1% | 297 µg/mL | – |
| OC[C@@H](O)[C@@H](O[C@@H]1O[C@H](CO)[C@H](O)[C@H](O)[C@H]1O)[C@H](O)[C@@H](O)CO [Lactitol] | 7.0 | – | – | – |
| OC[C@H]1O[C@H](O[C@H]2[C@H](O)[C@@H](O)[C@@H](O[C@H]3[C@H](O)[C@@H](O)[C@@H](O[C@H]4[C@H](O)[C@@H](O)C(O)O[C@@H]4CO)O[C@@H]3CO)O[C@@H]2CO)[C@H](O)[C@@H](O)[C@@H]1O (stereo partly drawn) [Maltotetraose] | 5.3 | 15% | 255 µg/mL | – |
| OC[C@H](O)[C@@H](O)[C@H](O)[C@H](O)CO[C@H]1O[C@H](CO)[C@@H](O)[C@H](O)[C@H]1O [Isomaltitol] | 7.0 | 10% | 270 µg/mL | – |
| OC[C@@H](O)[C@@H](O)[C@H](O)[C@@H](O)CO [Sorbitol] | 7.0 | 8% | 290 µg/mL | – |
| Inulobiose | 4.5 | 8% | 276 µg/mL | – |
| OC[C@H]1O[C@H](O[C@H]2[C@H](O)[C@@H](O)[C@H](O)O[C@@H]2CO)[C@H](O)[C@@H](O)[C@@H]1O [Maltose] | 4.0 | – | – | – |
| OC[C@@H](O)[C@@H](O[C@H]1O[C@H](CO)[C@@H](O)[C@H](O)[C@H]1O)[C@H](O)[C@@H](O)CO [Maltitol] | 7.0 | – | – | – |
